# Results reported in PMC6273820, “Antimicrobial Activity and Stability of Short and Long Based Arachnid Synthetic Peptides in the Presence of Commercial Antibiotics” (Molecules, 2016).
# Like-named read-outs stand apart in the source and are kept apart here. Where no end group is shown, it is not given here.
# Tests used:
# [1] = system: Staphylococcus aureus ATCC 25923; test: microbe, parasite or virus in culture; type: cell-based; conditions: for MIC: Staphylococcus aureus, read-out: Minimal Inhibitory Concentration, S. aureus
# Method: (§1) It was determined using the broth microdilution assay in accordance with the procedures from the Clinical and Laboratory Standards Institute. For broth microdilution assays, pathogenic bacteria, such as Escherichia coli ATCC 25922, Staphylococcus aureus ATCC 25923, Pseudomonas aeruginosa ATCC 27853 and Klebsiella pneumoniae ST258, were cultured in Mueller-Hinton broth (MHB) at 37 °C until an end point between of 0.08 and 0.13 units of absorbance at 625 nm and diluted 1:100 in MHB (ca. […]). Fifty microliters of this bacterial suspension was dispensed into each well of a 96-well microtiter Costar® culture plates (Sigma Aldrich) having 50 µL of MHB containing a proper concentration of pure AMPs, antibiotics or the mixture of either of the AMPs with either of the antibiotics used. Dilutions of peptides and antibiotics were made manually with two-fold dilutions.
# (§2) E. coli, S. aureus, P. aeruginosa and K. pneumoniae were grown in the presence of each of the four AMPs, and in the presence of each of the eight commercial antibiotics, which were Levofloxacin, Trimethoprim, Sulfamethoxazole, Azithromycin, Amoxicillin, Ceftriaxone, Gentamicin and Vancomycin, and in combinations of AMPs and the antibiotics. That is, the antimicrobial capacity of each AMP (50, 25, 12.5 and 6.2 µg/ mL) in combination with each antibiotic agent (50, 25, 12.5, 3.2, 1.6 and 0 µg/ mL) was measured as described above. For evaluation of the effect of the mixtures, the fractional inhibitory concentration (FIC) was calculated for each antibiotic in each combination. The following formulas were used to calculate the FIC index: FIC of AMP = MIC of AMP in combination with Antibiotic/MIC of AMP alone; FIC of Antibiotic = MIC of Antibiotic in combination with AMP/MIC of Antibiotic alone, and FIC index = FIC of AMP + FIC of Antibiotic. Synergy was defined as an FIC index of <0.5. Additive was defined as an FIC index of >0.5 but of <4, and finally antagonism was defined as an FIC index of >4.
# [2] = system: Pseudomonas aeruginosa ATCC 27853; test: microbe, parasite or virus in culture; type: cell-based; conditions: for MIC: Pseudomonas aeruginosa, read-out: Minimal Inhibitory Concentration, P. aureginosa
# Method: as §1, §2
# [3] = system: Escherichia coli ATCC 25922; test: microbe, parasite or virus in culture; type: cell-based; conditions: for MIC: Escherichia coli, read-out: Minimal Inhibitory Concentration, E. coli
# Method: as §1, with “dilutions. […]” for “dilutions.”
# [4] = system: Klebsiella pneumoniae ST258; test: microbe, parasite or virus in culture; type: cell-based; conditions: for MIC: Klebsiella pneumoniae, ST258, 18 h; for Minimal Inhibitory Concentration, K. pneumoniae: broth microdilution (CLSI), Mueller-Hinton broth, 18 h at 37 °C, A625nm, peptides n = 8
# Method: as §1
# as §2, with “That” for “E. coli, S. aureus, P. aeruginosa and K. pneumoniae were grown in the presence of each of the four AMPs, and in the presence of each of the eight commercial antibiotics, which were Levofloxacin, Trimethoprim, Sulfamethoxazole, Azithromycin, Amoxicillin, Ceftriaxone, Gentamicin and Vancomycin, and in combinations of AMPs and the antibiotics. That”
# [5] = Stability in human blood plasma; type: in vitro ADME; conditions: 50 μg/mL; for Peptide found after incubation in human blood plasma: 12 h at 37 °C, extraction, reverse phase HPLC at 230 nm, ESI-MS; for Recovery after interaction with human plasma, first few minutes of dilution: extracted after the first few minutes of dilution, reverse phase HPLC
# Method: (§3) The four synthetic peptides were subjected to incubation in human blood plasma or in the supernatant of S. aureus and P. aeruginosa growth. The AMPs were diluted in human blood plasma or in the supernatant of bacterial growth (50 μg/mL) and incubated at 37 °C for 12 h. After peptide extraction, the AMPs were separated by reverse phase HPLC using a C18 column (Vydac 218 TP54, Grace Co.) and a linear gradient of acetonitrile in 0.1% aqueous TFA from 0 to 60% in 60 min at a flow rate of 1 mL/min. Effluent absorbance was monitored at 230 nm. Peptide fractions were dried under vacuum, resuspended and analyzed by ESI-MS to confirm their molecular masses.
# [6] = Stability in supernatant of S. aureus growth; type: in vitro ADME, Staphylococcus aureus; conditions: 50 μg/mL, 12 h at 37 °C, extraction, reverse phase HPLC at 230 nm
# Method: as §3
# [7] = cited from earlier work
# From the text: Concerning AMPs, several physicochemical characteristics have been associated with the biological activity of them. Those that are relevant include hydrophobicity, the helical hydrophobic moment, as well as the size and the net charge of the peptide. However, no particular value relating to any of these characteristics was solely sufficient to correlate with the antimicrobial activity of the AMPs tested. In this case, however, the larger peptides FA1 and Pin2[G] were the AMPs that manifested optimum biological performance. Nevertheless, a fine balance in terms of physicochemical pr ...
# [8] = Stability in supernatant of P. aeruginosa growth; type: in vitro ADME, Pseudomonas aeruginosa; conditions: 50 μg/mL, 12 h at 37 °C, extraction, reverse phase HPLC at 230 nm
# Method: as §3
# [9] = ATCC25923, broth microdilution (CLSI), Mueller-Hinton broth, 18 h at 37 °C, A625nm, peptides n = 8
# [10] = ATCC27853, broth microdilution (CLSI), Mueller-Hinton broth, 18 h at 37 °C, A625nm, peptides n = 8
# [11] = ATCC25922, broth microdilution (CLSI), Mueller-Hinton broth, 18 h at 37 °C, A625nm, peptides n = 8
# [12] = read-out: Minimal Inhibitory Concentration, K. pneumoniae
# [13] = dose-response in Muller-Hinton broth, Figure 3D
# [14] = broth microdilution (CLSI), Mueller-Hinton broth, 18 h at 37 °C, A625nm, peptides n = 8
molecule,measurement,setting,value
CNC(C)C1CCC(N)C(OC2C(N)CC(N)C(OC3OCC(C)(O)C(NC)C3O)C2O)O1 (stereo not shown) [Gentamicin],MIC,[1]; [9],1.5 µg/mL
same,MIC,[2]; [10],1.5 µg/mL
same,MIC,[3]; [11],1.5 µg/mL
same,MIC,[4]; [12],12.5 µg/mL
same,MIC,"[4]; antibiotic alone against K. pneumoniae, based on Figure 3, read-out: Antibiotic (MIC)",12.5 µg/mL
same,Susceptibility of K. pneumoniae in words,[4]; [13],susceptible
FWGLKGLKKFSKKL [Pin2[14]],"Minimal Inhibitory Concentration, S. aureus",[1]; [14],>50 µg/mL
same,"Minimal Inhibitory Concentration, P. aureginosa",[2]; [14],>50 µg/mL
same,"Minimal Inhibitory Concentration, E. coli",[3]; [14],>50 µg/mL
same,Peptide found after incubation in human blood plasma,[5],not found
same,"Recovery after interaction with human plasma, first few minutes of dilution",[5],none
same,"Minimal Inhibitory Concentration, K. pneumoniae",[4],>50 µg/mL
same,Stability in supernatants of S. aureus,[6],not cleaved
same,hemolytic activity,[7],418 µM
CN[C@H](CC(C)C)C(=O)N[C@H]1C(=O)N[C@@H](CC(N)=O)C(=O)N[C@H]2C(=O)N[C@H]3C(=O)N[C@H](C(=O)N[C@H](C(=O)O)c4cc(O)cc(O)c4-c4cc3ccc4O)[C@H](O)c3ccc(c(Cl)c3)Oc3cc2cc(c3O[C@@H]2O[C@H](CO)[C@@H](O)[C@H](O)[C@H]2O[C@H]2C[C@](C)(N)[C@H](O)[C@H](C)O2)Oc2ccc(cc2Cl)[C@H]1O [Vancomycin],MIC,[1]; [9],1.5 µg/mL
same,MIC,[2]; [10],> 50 µg/mL
same,Susceptibility of P. aeruginosa in words,"[2]; dose-response in Muller-Hinton broth, Figure 3B",resistant
same,MIC,[3]; [11],> 50 µg/mL
same,Susceptibility of E. coli in words,"[3]; dose-response in Muller-Hinton broth, Figure 3C",resistance
same,MIC,[4]; read-out: Antibiotic (MIC),> 50 µg/mL
same,MIC,[4]; [12],> 50 µg/mL
same,Antibiotic concentration in whose presence K. pneumoniae could grow (up to),[4]; [13],up to 50 µg/mL
CC1(C)S[C@@H]2[C@H](NC(=O)[C@H](N)c3ccc(O)cc3)C(=O)N2[C@H]1C(=O)O [Amoxicillin],MIC,"[1]; ATCC25923, 18 h",1.5 µg/mL
same,Susceptibility of P. aeruginosa in words,[2],resistant
same,MIC,"[2]; ATCC27853, 18 h",> 50 µg/mL
same,MIC,"[3]; ATCC25922, 18 h",12.5 µg/mL
same,MIC,[4]; read-out: Antibiotic (MIC),> 50 µg/mL
same,MIC,[4]; [12],> 50 µg/mL
same,Antibiotic concentration in whose presence K. pneumoniae could grow (up to),[4]; [13],up to 50 µg/mL
CO/N=C(\C(=O)N[C@@H]1C(=O)N2C(C(=O)O)=C(CSc3nc(=O)c(=O)[nH]n3C)CS[C@H]12)c1csc(N)n1 [Ceftriaxone],MIC,[1]; [9],1.5 µg/mL
same,MIC,[2]; [10],12.5 µg/mL
same,MIC,[3]; [11],1.5 µg/mL
same,MIC,[4]; read-out: Antibiotic (MIC),> 50 µg/mL
same,MIC,[4]; [12],> 50 µg/mL
same,Antibiotic concentration in whose presence K. pneumoniae could grow (up to),[4]; [13],up to 50 µg/mL
COc1cc(Cc2cnc(N)nc2N)cc(OC)c1OC [Trimethoprim],MIC,"[1]; ATCC25923, 18 h",1.5 µg/mL
same,Susceptibility of P. aeruginosa in words,[2],resistant
same,MIC,"[2]; ATCC27853, 18 h",> 50 µg/mL
same,MIC,"[3]; ATCC25922, 18 h",1.5 µg/mL
same,MIC,[4]; read-out: Antibiotic (MIC),> 50 µg/mL
same,MIC,[4]; [12],> 50 µg/mL
same,Antibiotic concentration in whose presence K. pneumoniae could grow (up to),[4]; [13],up to 50 µg/mL
Cc1cc(NS(=O)(=O)c2ccc(N)cc2)no1 [Sulfamethoxazole],Susceptibility of S. aureus in words,[1],resistance
same,MIC,"[1]; ATCC25923, 18 h",> 50 µg/mL
same,Susceptibility of P. aeruginosa in words,[2],resistant
same,MIC,"[2]; ATCC27853, 18 h",> 50 µg/mL
same,Susceptibility of E. coli in words,[3],to some extent
same,MIC,"[3]; ATCC25922, 18 h",> 50 µg/mL
same,MIC,[4]; read-out: Antibiotic (MIC),> 50 µg/mL
same,MIC,[4]; [12],> 50 µg/mL
CC[C@H]1OC(=O)[C@H](C)[C@@H](O[C@H]2C[C@@](C)(OC)[C@@H](O)[C@H](C)O2)[C@H](C)[C@@H](O[C@@H]2O[C@H](C)C[C@H](N(C)C)[C@H]2O)[C@](C)(O)C[C@@H](C)CN(C)[C@H](C)[C@@H](O)[C@]1(C)O [Azithromycin],MIC,[1]; [9],3.1 µg/mL
same,MIC,[2]; [10],12.5 µg/mL
same,MIC,[3]; [11],1.5 µg/mL
same,MIC,[4]; read-out: Antibiotic (MIC),> 50 µg/mL
same,MIC,[4]; [12],> 50 µg/mL
same,Antibiotic concentration in whose presence K. pneumoniae could grow (up to),[4]; [13],up to 50 µg/mL
GILKTIKSIASKLKRKAK [P18K],Stability in supernatants of P. aeruginosa,[8],probably sequestered or cleaved
same,"Minimal Inhibitory Concentration, S. aureus",[1]; [14],>50 µg/mL
same,"Minimal Inhibitory Concentration, P. aureginosa",[2]; [14],>50 µg/mL
same,"Minimal Inhibitory Concentration, E. coli",[3]; [14],>50 µg/mL
same,Peptide found after incubation in human blood plasma,[5],neither was P18K obtained
same,"Recovery after interaction with human plasma, first few minutes of dilution",[5],none
same,"Minimal Inhibitory Concentration, K. pneumoniae",[4],>50 µg/mL
same,Stability in supernatants of S. aureus,[6],probably sequestered or cleaved
same,hemolytic activity,[7],923 µM
FWGALAKGALKLIGSLFSSFSKKD [Pin2[G]],Stability in supernatants of P. aeruginosa,[8],not cleaved
same,"Minimal Inhibitory Concentration, S. aureus",[1]; [14],25 µg/mL
same,"Minimal Inhibitory Concentration, P. aureginosa",[2]; [14],>50 µg/mL
same,"Minimal Inhibitory Concentration, E. coli",[3]; [14],50 µg/mL
same,Peptide found after incubation in human blood plasma,[5],One quarter
same,Peptide (MIC),"[4]; peptide alone against K. pneumoniae, based on Figure 2",>50 µg/mL
same,Stability in supernatants of S. aureus,[6],not cleaved
same,hemolytic activity,[7],1.4 µM
C[C@H]1COc2c(N3CCN(C)CC3)c(F)cc3c(=O)c(C(=O)O)cn1c23 [Levofloxacin],MIC,[1]; [9],1.5 µg/mL
same,MIC,[2]; [10],1.5 µg/mL
same,MIC,[3]; [11],1.5 µg/mL
same,MIC,[4]; read-out: Antibiotic (MIC),50 µg/mL
same,MIC,[4]; [12],50 µg/mL
same,Antibiotic concentration in whose presence K. pneumoniae could grow (up to),[4]; [13],up to 25 µg/mL
